From patent publication US11154519B2, “Inhibitors and their uses” (MEDICAL RESEARCH COUNCIL, priority 2015, dated 2021)

How the values were obtained:
[1] = system: HeLa cells; test: Cell death dose response (CellTox green, IncuCyte); format: cell-based; settings: for EC50: Homo sapiens, area under % cell death vs time curve against log conc, read-out: Effect on cell death ⇒ EC50; for Effect on cell death: IncuCyte, 0-20 μM
Protocol: Toxicity of the compounds is assessed using Cell viability Counting Kit-8 (Dojindo) or in a Incucyte (Essenbioscience) using both phase contrast and IncuCyte™ Cytotox Green Reagent.
HeLa cells (40,000 cells/ml) were plated in a 96-well plate and treated with different concentrations (0-20 μM) of a compound as indicated in the presence of 250 ng/ml Tunicamycin for 72 hours. To monitor cell death 1/2000 dilution of the CellTox green dye (Promega) was added to the media. The growth of the cells was monitored over time and pictures taken every 2 hours with the IncuCyte ZOOM system and analysed by the IncuCyte ZOOM software (Essen BioScience). […] Cytoprotection against ER stress can be measured by a suitable assay. In this instance, cytoprotection was measured in HeLa cells in which ER stress was elicited by the addition of media containing tunicamycin, a drug that blocks N-glycosylation, thereby preventing protein folding and inducing the unfolded protein response. Cell viability was then detected in the presence and absence of a compound listed in Table 1 after a set period of time, by monitoring cell growth over time. Cytoprotection from ER stress was measured in terms of the percentage increase in viable cells (relative to control) after ER stress.
EC50 were extrapolated from dose response experiments on cell death. Data from IncuCyte was plotted and analysed in Prism. The “% of cell death” for each data point. For each concentration there is a % of cell death vs time, the area under the curve was taken and plotted against log conc=>EC50 (analysis in Prism).

[2] = system: R15A or R15B; test: Selective binding towards R15A or R15B (based on SPR); parameters: species or system human
Protocol: In one embodiment, the compounds of formula IB inhibit PPP1R15A and PPP1R15B. Inhibition of PPP1R15A and PPP1R15B can be determined from binding analysis. For example, binding can be analysed using SPR (surface plasmon resonance) to obtain KD values. A PPP1R15A and PPP1R15B inhibitor may be defined as a compound where the difference in KD values between R15A and R15B is no more than about 3 fold.
Small molecules were stored as 50 mM stock solutions in 100% DMSO. Prior to determining binding constants, serial dilutions of either 12 or 8 concentrations of the compounds were prepared in the running buffer in a 96-well plate. Prior to each compound dilution series the regulatory subunit, MBP-R15A^325-636-His or MBP-R15B^340-698-His, was diluted to 10 μM in the running buffer and captured on the bio-PP1c surface at a flow rate of 30 μl/min for 1 minute to form the holophosphatase complex on the sensor chip surface. This was followed by 1 minute stabilization period, to wash off any unspecific binding. Then, without regenerating the surface, the compound dilution series was injected onto the surface of the chip at a flow rate of 30 μl/min for 1 minute, followed by 2 minutes dissociation time. After each dilution series the surface was regenerated using 3 M NaCl for 90 seconds. After regeneration, SPR responses generally returned to base levels and the bio-PP1c surface was ready for the next compound dilution series. In order to be able to correct for small variations in DMSO concentration between samples, eight solvent samples ranging from 0.06 to 8% DMSO were injected every 50th cycle. The flow cell temperature was 10° C.
Sensorgrams were analyzed using the Biacore T200 evaluation software and the binding constants determined based on a steady-state model. Kinetic experiments are carried out using different concentrations of the compound and their respective equilibrium binding levels determined.

[3] = system: protein synthesis; test: Assessment of translation rates (35S-methionine labelling); format: cell-based; settings: for Effect on translation: 35S-methionine labelling of cells; for Effect on translation ⇒ Inhibits: target(s) concluded to be inhibited
Protocol: Cells (90,000 cells/ml) were plated in 12-well plates, treated as indicated, labelled with 100 μCi/mI 35S-methionine (Hartmann Analytic) for 10 minutes at 37° C., washed with ice-cold PBS and lysed in 120 μl Laemmli Buffer. Lysates were boiled at 95° C. for 5 minutes, sonicated and resolved on 4-12% Bolt Bis-Tris Plus Gels (Thermo Fisher Scientific). Gels were then stained with InstantBlue (Expedeon) and analyzed by phosphorimaging and quantified using ImageJ.
By monitoring translation rates as described above, the activities of R15A, R15B and R15A/B inhibitors can be defined as follows (also shown in FIG. 12). An R15A inhibitor has no effect on translation in unstressed cells but prolongs translation attenuation following stress. A selective R15B inhibitor transiently attenuate protein synthesis because R15A compensates for the inhibition of R15B.

[4] = molecular target: T1, PP1 (Homo sapiens, UniProt P36873); test: SPR binding to PP1 alone; settings: SPR steady-state, bio-PP1c surface
T1 construct: made in house; host or cells: Sf9 insect cells (baculovirus, pDW464)
T1 sequence (P36873 whole entry): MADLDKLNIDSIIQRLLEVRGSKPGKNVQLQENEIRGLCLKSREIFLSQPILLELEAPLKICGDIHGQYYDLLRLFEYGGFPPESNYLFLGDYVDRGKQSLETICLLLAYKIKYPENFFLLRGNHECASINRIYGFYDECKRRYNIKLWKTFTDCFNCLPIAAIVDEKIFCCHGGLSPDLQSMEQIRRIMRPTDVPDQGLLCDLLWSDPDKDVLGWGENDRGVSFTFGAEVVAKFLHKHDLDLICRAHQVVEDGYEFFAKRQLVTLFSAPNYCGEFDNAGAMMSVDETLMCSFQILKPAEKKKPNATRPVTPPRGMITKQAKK

[H]/N=C(\N)NN=Cc1cc(Cl)cc(Cl)c1Cl [Compound 10, (E)-2-(2,3,5-trichlorobenzylidene)hydrazine-1-carboximidamide]
EC50 [1]: 12.5 µM
Effect on cell death [1]: Yes
Selective binding towards R15A or R15B (based on SPR) [2]: R15AB (A PPP1R15A and PPP1R15B inhibitor may be defined as a compound where the difference in KD values between R15A and R15B is no more than about 3 fold)
Effect on translation [3]: Persistent
protein synthesis rates ([3]; unstressed cells, 10 μM, FIG. 12): persistently inhibits protein synthesis

[H]/N=C(\N)NN=Cc1ccc(F)c(Cl)c1Cl [Compound 14, (E)-2-(2,3-dichloro-4-fluorobenzylidene)hydrazine-1-carboximidamide]
EC50 [1]: 18.4 µM
Effect on cell death [1]: Yes
Selective binding towards R15A or R15B (based on SPR) [2]: R15AB (A PPP1R15A and PPP1R15B inhibitor may be defined as a compound where the difference in KD values between R15A and R15B is no more than about 3 fold)
Effect on translation [3]: Persistent

[H]/N=C(\N)NN=Cc1cc(Cl)c(F)c(Cl)c1 [Compound 5, (E)-2-(3,5-dichloro-4-fluorobenzylidene)hydrazine-1-carboximidamide]
EC50 [1]: 9.46 µM
Effect on cell death [1]: Yes
Selective binding towards R15A or R15B (based on SPR) [2]: R15AB (A PPP1R15A and PPP1R15B inhibitor may be defined as a compound where the difference in KD values between R15A and R15B is no more than about 3 fold)
Kd [4]: 30.6 µM

[H]/N=C(\N)NN=Cc1cc(Cl)ccc1Cl [Compound 26, (E)-2-(2,5-dichlorobenzylidene)hydrazine-1-carboximidamide]
Effect on cell death [1]: No
Selective binding towards R15A or R15B (based on SPR) [2]: R15AB (A PPP1R15A and PPP1R15B inhibitor may be defined as a compound where the difference in KD values between R15A and R15B is no more than about 3 fold)
Effect on translation ⇒ Inhibits [3]: R15AB

[H]/N=C(\N)NN=Cc1ccc(F)c(Cl)c1 [Compound 15, (E)-2-(3-chloro-4-fluorobenzylidene)hydrazine-1-carboximidamide]
EC50 [1]: 19.5 µM
Effect on cell death [1]: Yes
Selective binding towards R15A or R15B (based on SPR) [2]: R15AB (A PPP1R15A and PPP1R15B inhibitor may be defined as a compound where the difference in KD values between R15A and R15B is no more than about 3 fold)
Kd [4]: 6.14 ± 0.28 µM

[H]/N=C(\N)NN=Cc1cc(F)ccc1Cl [Compound 20, (E)-2-(2-chloro-5-fluorobenzylidene)hydrazine-1-carboximidamide]
EC50 [1]: 37.8 µM
Effect on cell death [1]: Yes
Selective binding towards R15A or R15B (based on SPR) [2]: R15AB (A PPP1R15A and PPP1R15B inhibitor may be defined as a compound where the difference in KD values between R15A and R15B is no more than about 3 fold)
Effect on translation ⇒ Inhibits [3]: R15AB

[H]/N=C(\N)NN=Cc1cc(F)cc(F)c1Cl [Compound 29, (E)-2-(2-chloro-3,5-difluorobenzylidene)hydrazine-1-carboximidamide]
Effect on cell death [1]: No
Selective binding towards R15A or R15B (based on SPR) [2]: R15AB (A PPP1R15A and PPP1R15B inhibitor may be defined as a compound where the difference in KD values between R15A and R15B is no more than about 3 fold)
Effect on translation ⇒ Inhibits [3]: R15AB

[H]/N=C(\N)NN=Cc1cc(Cl)cc(Cl)c1 [Compound 34, (E)-2-(3,5-dichlorobenzylidene)hydrazine-1-carboximidamide]
Effect on cell death [1]: No
Selective binding towards R15A or R15B (based on SPR) [2]: R15AB (A PPP1R15A and PPP1R15B inhibitor may be defined as a compound where the difference in KD values between R15A and R15B is no more than about 3 fold)
Effect on translation ⇒ Inhibits [3]: R15AB

[H]/N=C(\N)NN=Cc1cccc(F)c1 [Compound 23, (E)-2-(3-fluorobenzylidene)hydrazine-1-carboximidamide]
Effect on cell death [1]: No
Selective binding towards R15A or R15B (based on SPR) [2]: R15AB (A PPP1R15A and PPP1R15B inhibitor may be defined as a compound where the difference in KD values between R15A and R15B is no more than about 3 fold)
Effect on translation ⇒ Inhibits [3]: R15AB

[H]/N=C(\N)NN=Cc1cccnc1Cl [Compound 21, (E)-2-((2-chloropyridin-3-yl)methylene)hydrazine-1-carboximidamide]
Effect on cell death [1]: No
Selective binding towards R15A or R15B (based on SPR) [2]: R15AB (A PPP1R15A and PPP1R15B inhibitor may be defined as a compound where the difference in KD values between R15A and R15B is no more than about 3 fold)
Effect on translation [3]: Transient

[H]/N=C(\N)NN=Cc1ccc(Cl)c(Cl)c1Cl [Compound 6, (E)-2-(2,3,4-trichlorobenzylidene)hydrazine-1-carboximidamide]
EC50 [1]: 9.65 µM
Effect on cell death [1]: Yes
Selective binding towards R15A or R15B (based on SPR) [2]: R15AB (A PPP1R15A and PPP1R15B inhibitor may be defined as a compound where the difference in KD values between R15A and R15B is no more than about 3 fold)
Effect on translation [3]: Persistent

[H]/N=C(\N)NN=Cc1ccc(Cl)nc1Cl [Compound 22, (E)-2-((2,6-dichloropyridin-3-yl)methylene)hydrazine-1-carboximidamide]
Effect on cell death [1]: No
Selective binding towards R15A or R15B (based on SPR) [2]: R15AB (A PPP1R15A and PPP1R15B inhibitor may be defined as a compound where the difference in KD values between R15A and R15B is no more than about 3 fold)
Effect on translation ⇒ Inhibits [3]: R15AB

[H]/N=C(\N)NN=Cc1ccc(Cl)c(Cl)c1 [Compound 11, (E)-2-(3,4-dichlorobenzylidene)hydrazine-1-carboximidamide]
EC50 [1]: 12.7 µM
Effect on cell death [1]: Yes
Selective binding towards R15A or R15B (based on SPR) [2]: R15AB (A PPP1R15A and PPP1R15B inhibitor may be defined as a compound where the difference in KD values between R15A and R15B is no more than about 3 fold)
Effect on translation ⇒ Inhibits [3]: R15AB

[H]/N=C(\N)NN=Cc1ccc(Cl)cc1 [Compound 1, (E)-2-((4-chlorophenyl)methylene)hydrazine-1-carboximidamide]
EC50 [1]: 4.9 µM
Effect on cell death [1]: Yes
Selective binding towards R15A or R15B (based on SPR) [2]: R15AB (A PPP1R15A and PPP1R15B inhibitor may be defined as a compound where the difference in KD values between R15A and R15B is no more than about 3 fold)
Kd [4]: 6.28 µM

N=C(N)N/N=C/c1cc(Cl)c(Cl)cc1F [Compound 18, (E)-2-(4,5-dichloro-2-fluorobenzylidene)hydrazine-1-carboximidamide]
EC50 [1]: 23.8 µM
Effect on cell death [1]: Yes
Selective binding towards R15A or R15B (based on SPR) [2]: R15AB (A PPP1R15A and PPP1R15B inhibitor may be defined as a compound where the difference in KD values between R15A and R15B is no more than about 3 fold)
Kd [4]: 10.2 ± 0.14 µM

[H]/N=C(\N)NN=Cc1ccc(Cl)c(F)c1Cl [Compound 13, (E)-2-(2,4-dichloro-3-fluorobenzylidene)hydrazine-1-carboximidamide]
EC50 [1]: 15.5 µM
Effect on cell death [1]: Yes
Selective binding towards R15A or R15B (based on SPR) [2]: R15AB (A PPP1R15A and PPP1R15B inhibitor may be defined as a compound where the difference in KD values between R15A and R15B is no more than about 3 fold)
Effect on translation [3]: Persistent
Effect on translation ⇒ Inhibits [3]: R15AB
